The values that follow come from patent US9624278B2, “Protein complex comprising MCM8 and MCM9 proteins and their use” (CENTRE NATIONAL DE LA RECHERCHE SCIENTIFIQUE, priority 2011, dated 2017).

Each structure is given as a SMILES string.

Holding throughout (assay type): cell-based, mouse
The subject of one test is MCM9-deficient MEF cells. The test is described as follows: BrdU incorporation and growth of MCM9-deficient MEF cells treated 24 h with aphidicolin and released. Here is the method: (§1) In Xenopus egg extracts, MCM8 and 9 were found essential for efficient DNA replication^4 5. However, in in-vitro systems derived from Xenopus eggs, DNA replication efficiency is at its maximum, as all potential DNA replication origins are activated, leading to an unusual short inter-origin space and an accelerated S phase (less than 20 min). A deficiency in DNA replication could be therefore rapidly detected. In somatic cells, S phase stands for 6-10 hrs, including during mouse early development (Wowlett and Bolton, 1985), J. Embryol. Exp. Morph, 87, 175; Ferreira and Carmon Forseca, 1997, J. Cell Sci, 11, 889). Therefore, defects in DNA replication can be compensated by induction of the store of dormant origins and/or a higher rate of replication. To investigate this possibility, and reveal possible DNA replication weaknesses in KO MEFs the Inventors first performed DNA fiber stretching^24, using a double pulse-labeling method, applying first a CldU pulse (“red” pulse), followed a second IdU pulse (“green” pulse), as in FIG. 29. Replication fork arrests can be detected by measuring the length of the second pulse, which becomes shorter if the fork is blocked or slowing down. […] To reveal whether MCM9 KO cells were more sensitive to replication stress, the Inventors treated MEF cells for 24 hrs with low concentration (1 μM) of aphidicolin (APH), an inhibitor of DNA polymerases that slows down or blocks replication forks. First, the Inventors quantified the global efficiency of DNA replication by measuring the proportion of cells incorporating BrdU. […] The Inventors concluded that KO cells were highly sensitive to replication fork inhibition. When cells were further released from APH treatment, control cells re-establish the original BrdU-intensity within the first 3 hours (FIG. 30, FIGS. 31A-T). […] The Inventors conclude that MCM9 KO cells are highly sensitive to replication stress, and unable to rescue arrested forks, resulting in growth arrest. […]
A general note: Uptake of a labelled nucleoside into DNA is a usual measure of proliferation.

The test system of a further test is WT MEF cells. Briefly: BrdU incorporation and growth of WT MEF cells treated 24 h with aphidicolin and released. As to the method: as §1
The test system of another test is MCM9 and MCM8. The test is described as follows: Western blot of WT MEF cells exposed for 24 h to APH. As to conditions: WT MEFs treated by APH. Here is the method: FIG. 34B represents a western blot analysis of WT-(lanes A and C) and MCM9-deficient-(lanes B and D) MEF cells exposed (lanes C and D) or not (lanes A and B) for 24 h to APH for MCM9 (panel 1), MCM8 (panel 2), Chk1-P (panel 3), Chk2 (panel 4) and GAPDH (panel 5) as loading control. […] Rad51 is an essential protein of the homologous recombination pathway that is the main repair mechanisms of DSBs caused by replication fork arrest^25,12. […] For chromatin isolation, MEF cells were harvested, washed with PBS, frozen at −80° C. or directly lysed in CSK buffer (150 mM NaCl, 10 mM HEPES pH 7.5, 300 mM Sucrose, 1 mM MgCl2, 1 mM EDTA, 1 mM ATP.MgCl2, 1 mM DTT, 0.2% Triton X-100, Phosphatase-inhibitors (Calbiochem), protease-inhibitors Leupeptin, Aprotinin and Pepstatin at a concentration of 10 μg/ml) for 10 min on ice in a volume of 1 μl buffer for 2000 cells. For whole cell extract (“WCE”), a sample of the lysate was mixed with two times Laemli SDS buffer and boiled. The lysate was centrifuged at 3′800 g for 5 min at 4° C., the pellet homogenized again in CSK buffer, extracted again for 5 min on ice and centrifuged again and finally solubilized in two times Laemli SDS buffer (1 μl buffer for 5000 cells).
For orientation: A western blot detects proteins with antibodies after separation by electrophoresis.

In the case of `C[C@@]1(CO)[C@H](O)CC[C@@]2(C)[C@H]1CC[C@H]1C[C@@H]3C[C@@]12CC[C@]3(O)CO` [APH, aphidicolin], the “cell growth after the release from APH” value in the test with MCM9-deficient MEF cells (MCM9- (as well as MCM8-) KO MEF cells, 24 h APH then released without drug) is listed as “died or stopped dividing”; in the test on WT MEF cells (WT MEF cells, 24 h APH then released without drug) it was “resumed growth soon”. Also, the “BrdU-labeled nuclei after the APH treatment” value with MCM9-deficient MEF cells (MCM9-deficient MEF cells, 1 μM aphidicolin, 24 hrs) is listed as “nearly no BrdU-labeled nuclei”. Also, the “time until percentage of BrdU-positive cells comparable to before the APH treatment” value with MCM9-deficient MEF cells (surviving MCM9-deficient KO MEF cells, released from 24 h APH treatment) turned out to be 48 h. For the same compound, the “BrdU signal in nuclei after the APH treatment” value in the test on WT MEF cells (WT MEF cells, 1 μM aphidicolin, 24 hrs) is on record as “strongly reduced”. Besides, the “time to re-establish the original BrdU-intensity after release from APH” value with WT MEF cells (control (WT) MEF cells, released from 24 h APH treatment) is at most 3 h. Also, in the test on MCM9 and MCM8, the “expression of MCM9 and MCM8 at the protein level” value was “stronger expression”.
